Assay results reported in patent US11779572B1, “Methods of treating gastrointestinal stromal tumors” (Deciphera Pharmaceuticals, LLC, priority 2022, dated 2023).

How the values were obtained:
[1] = molecular target: CYP3A4 (Homo sapiens, UniProt P08684); experiment: Contribution of CYP enzymes to metabolism, in vitro data; format: in vitro ADME; conditions: base model, based on in vitro data
Text: (§1) A PBPK model that included a mechanistic absorption model was developed.

[2] = molecular target: CYP2D6 (Homo sapiens, UniProt P10635); experiment: as above; format: in vitro ADME; conditions: base model, based on in vitro data
CYP2D6, sequence (P10635 whole entry): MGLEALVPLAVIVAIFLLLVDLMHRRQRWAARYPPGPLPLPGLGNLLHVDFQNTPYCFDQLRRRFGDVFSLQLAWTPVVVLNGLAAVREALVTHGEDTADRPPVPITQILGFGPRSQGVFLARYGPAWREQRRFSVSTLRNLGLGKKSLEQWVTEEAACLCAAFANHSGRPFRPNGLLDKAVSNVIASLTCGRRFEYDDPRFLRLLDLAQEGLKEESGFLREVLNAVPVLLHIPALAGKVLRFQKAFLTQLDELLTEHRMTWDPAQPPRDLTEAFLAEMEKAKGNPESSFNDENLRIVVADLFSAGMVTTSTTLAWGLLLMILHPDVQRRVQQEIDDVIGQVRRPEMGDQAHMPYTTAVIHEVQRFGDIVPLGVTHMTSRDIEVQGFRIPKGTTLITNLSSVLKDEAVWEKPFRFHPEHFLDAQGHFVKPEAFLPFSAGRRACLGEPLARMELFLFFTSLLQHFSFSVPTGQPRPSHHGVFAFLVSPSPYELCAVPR
Text: as §1

[3] = tested on: patients with advanced GIST; experiment: Example 1 study: patient reported outcomes (EQ-5D-5L VAS, EORTC QLQ-C30); format: in vivo, human; conditions: 150 mg QD
Protocol: Patient reported outcomes were assessed by EQ-5D-5L, which provides a visual analogue scale (VAS), and EORTC QLQ-C30, which provides physical function and role function scales. The EQ-5D-5L VAS (or EQ-VAS) records the respondent's overall current health on a vertical visual analogue scale and provides a quantitative measure of the patient's perception of overall health. These patient outcomes were reported across 28-day cycles of receiving 150 mg QD ripretinib or placebo.
The EORTC QLQ-C30 is an assessment of function and symptoms of therapy by cancer patient, and is not specific to any cancer. The EORTC QLQ-C30 is a 30-question plus one global health status, including 5 functional scales, 3 symptom scales and a global health status.

[4] = Coadministration with pantoprazole (proton-pump inhibitor); format: in vivo, human; conditions: 40 mg QD pantoprazole with 150 mg QD ripretinib
Protocol: The effect of a proton-pump inhibitor on the exposure of ripretinib was evaluated.

[5] = tested on: GIST patients; experiment: Example 2 study: treatment-emergent adverse events; format: in vivo, human
Protocol: Grade 3 or 4 treatment-emergent adverse events (TEAEs) in >5% of patients were lipase increased (18%; n=33), anemia (11%; n=20), hypertension (7%; n=13) and abdominal pain (6%; n=11). 13% of patients (n=24) experienced TEAEs leading to study treatment discontinuation, 17% of patients (n=31) experienced TEAEs leading to dose reduction and 49% of patients (n=88) had TEAEs leading to study drug interruption. Table 3 lists TEAEs >10% for GIST patients treated with ≥100 mg of ripretinib daily.

[6] = ≥100 mg daily, col c2 (no head; Grade 3 or 4)

CYP3A4, sequence (P08684 whole entry): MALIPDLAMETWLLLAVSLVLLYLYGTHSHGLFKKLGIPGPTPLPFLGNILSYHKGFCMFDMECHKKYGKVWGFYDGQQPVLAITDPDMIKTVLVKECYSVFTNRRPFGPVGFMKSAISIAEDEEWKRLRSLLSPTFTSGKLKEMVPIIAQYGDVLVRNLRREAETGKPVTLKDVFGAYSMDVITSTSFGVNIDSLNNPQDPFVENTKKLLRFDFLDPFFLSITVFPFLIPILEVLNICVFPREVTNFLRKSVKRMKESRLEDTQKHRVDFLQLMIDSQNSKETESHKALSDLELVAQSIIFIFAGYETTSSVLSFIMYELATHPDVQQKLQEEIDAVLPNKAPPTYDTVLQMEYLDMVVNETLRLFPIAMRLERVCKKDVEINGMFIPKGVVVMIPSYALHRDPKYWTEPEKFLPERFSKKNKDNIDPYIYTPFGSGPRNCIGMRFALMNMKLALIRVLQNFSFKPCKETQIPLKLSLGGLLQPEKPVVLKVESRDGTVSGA

CCn1c(=O)c(-c2cc(NC(=O)Nc3ccccc3)c(F)cc2Br)cc2cnc(NC)cc21 [ripretinib]
share of metabolism assigned to CYP3A4 [1]: 59%
share of metabolism assigned to CYP2D6 [2]: 18%
EORTC QLQ-C30 physical function score, average improvement from baseline ([3]; baseline to C2D1): 1.6
EORTC QLQ-C30 role function score, average improvement from baseline ([3]; baseline to C2D1): 3.5
EQ-VAS score, average improvement from baseline ([3]; baseline to Cycle 2, Day 1): 3.7
EORTC QLQ-C30 Question C29 (overall health) score improvement ([3]; scale 1 to 7): 0.20
EORTC QLQ-C30 Question C30 (overall quality of life) score improvement ([3]; scale 1 to 7): 0.28
plasma exposure when ripretinib is coadministered with pantoprazole [4]: No clinically significant differences
tolerability ([5]; GIST patients ≥100 mg daily): generally well tolerated
Grade 3 or 4 TEAE abdominal pain ([5]; ≥100 mg daily): 6%
Grade 3 or 4 TEAE anemia ([5]; ≥100 mg daily): 11%
Grade 3 or 4 TEAE hypertension ([5]; ≥100 mg daily): 7%
Grade 3 or 4 TEAE lipase increased ([5]; ≥100 mg daily): 18%
patients with TEAEs leading to dose reduction ([5]; ≥100 mg daily): 17%
patients with TEAEs leading to study drug interruption ([5]; ≥100 mg daily): 49%
patients with TEAEs leading to study treatment discontinuation ([5]; ≥100 mg daily): 13%
TEAE: Abdominal pain ([5]; ≥100 mg daily, col c1): 33 (18%)
TEAE: Actinic keratosis ([5]; ≥100 mg daily, col c1): 25 (14%)
TEAE: Alopecia ([5]; ≥100 mg daily, col c1): 102 (57%)
TEAE: Amylase increased ([5]; ≥100 mg daily, col c1): 19 (11%)
TEAE: Anemia ([5]; ≥100 mg daily, col c1): 18 (10%)
TEAE: Arthralgia ([5]; ≥100 mg daily, col c1): 40 (22%)
TEAE: Back Pain ([5]; ≥100 mg daily, col c1): 30 (17%)
TEAE: Blood bilirubin increase ([5]; ≥100 mg daily, col c1): 16 (9%)
TEAE: Blood creatine phosphokinase increased ([5]; ≥100 mg daily, col c1): 13 (7%)
TEAE: Constipation ([5]; ≥100 mg daily, col c1): 67 (37%)
TEAE: Cough ([5]; ≥100 mg daily, col c1): 37 (21%)
TEAE: Decreased appetite ([5]; ≥100 mg daily, col c1): 60 (34%)
TEAE: Diarrhea ([5]; ≥100 mg daily, col c1): 50 (28%)
TEAE: Dizziness ([5]; ≥100 mg daily, col c1): 29 (16%)
TEAE: Dry skin ([5]; ≥100 mg daily, col c1): 37 (21%)
TEAE: Dysgeusia ([5]; ≥100 mg daily, col c1): 20 (11%)
TEAE: Dyspnea ([5]; ≥100 mg daily, col c1): 32 (18%)
TEAE: Fatigue ([5]; ≥100 mg daily, col c1): 94 (53%)
TEAE: Headache ([5]; ≥100 mg daily, col c1): 33 (18%)
TEAE: Hypertension ([5]; ≥100 mg daily, col c1): 25 (14%)
TEAE: Hypokalaemia ([5]; ≥100 mg daily, col c1): 21 (12%)
TEAE: Hypomagnesaemia ([5]; ≥100 mg daily, col c1): 18 (10%)
TEAE: Hypophosphataemia ([5]; ≥100 mg daily, col c1): 17 (10%)
TEAE: Insomnia ([5]; ≥100 mg daily, col c1): 21 (12%)
TEAE: Lipase increased ([5]; ≥100 mg daily, col c1): 18 (10%)
TEAE: Muscle spasms ([5]; ≥100 mg daily, col c1): 47 (26%)
TEAE: Myalgia ([5]; ≥100 mg daily, col c1): 79 (44%)
TEAE: Nausea ([5]; ≥100 mg daily, col c1): 77 (43%)
TEAE: Pain in extremity ([5]; ≥100 mg daily, col c1): 18 (10%)
TEAE: Palmar-plantar erythrodysaesthesia syndrome ([5]; ≥100 mg daily, col c1): 71 (40%)
TEAE: Pruritus ([5]; ≥100 mg daily, col c1): 18 (10%)
TEAE: Rash ([5]; ≥100 mg daily, col c1): 27 (15%)
TEAE: Rash maculo-papular ([5]; ≥100 mg daily, col c1): 18 (10%)
TEAE: Seborrhoeic keratosis ([5]; ≥100 mg daily, col c1): 21 (12%)
TEAE: Skin papilloma ([5]; ≥100 mg daily, col c1): 17 (10%)
TEAE: Upper respiratory tract infection ([5]; ≥100 mg daily, col c1): 18 (10%)
TEAE: Urinary tract infection ([5]; ≥100 mg daily, col c1): 16 (9%)
TEAE: Vision blurred ([5]; ≥100 mg daily, col c1): 17 (10%)
TEAE: Vomiting ([5]; ≥100 mg daily, col c1): 42 (24%)
TEAE: Weight decreased ([5]; ≥100 mg daily, col c1): 51 (29%)
TEAE: Abdominal pain [5, 6]: 11 (6%)
TEAE: Actinic keratosis [5, 6]: 0 (0%)
TEAE: Alopecia [5, 6]: 0 (0%)
TEAE: Amylase increased [5, 6]: 2 (1%)
TEAE: Anemia [5, 6]: 20 (11%)
TEAE: Arthralgia [5, 6]: 0 (0%)
TEAE: Back Pain [5, 6]: 2 (1%)
TEAE: Blood bilirubin increase [5, 6]: 5 (3%)
TEAE: Blood creatine phosphokinase increased [5, 6]: 5 (3%)
TEAE: Constipation [5, 6]: 0 (0%)
TEAE: Cough [5, 6]: 0 (0%)
TEAE: Decreased appetite [5, 6]: 2 (1%)
